Source: patent US20190330275A1 (priority 2016, published 2019)
Peptide text beside a SMILES is read from it.

How the values were obtained:
[1] = target: rat α6/α3β4 nAChR (Rattus norvegicus, UniProt P04757+P12392+P43143); assay: cell-based
[2] = target: rat α3β4 nAChR (Rattus norvegicus, UniProt P04757+P12392); assay: cell-based; details: for IC50: α3β4 IC50 (half-blocking dose)
[3] = α6/α3β4 IC50 (half-blocking dose)

Sequence of rat α3β4 nAChR (P04757 26-499 limits assumed): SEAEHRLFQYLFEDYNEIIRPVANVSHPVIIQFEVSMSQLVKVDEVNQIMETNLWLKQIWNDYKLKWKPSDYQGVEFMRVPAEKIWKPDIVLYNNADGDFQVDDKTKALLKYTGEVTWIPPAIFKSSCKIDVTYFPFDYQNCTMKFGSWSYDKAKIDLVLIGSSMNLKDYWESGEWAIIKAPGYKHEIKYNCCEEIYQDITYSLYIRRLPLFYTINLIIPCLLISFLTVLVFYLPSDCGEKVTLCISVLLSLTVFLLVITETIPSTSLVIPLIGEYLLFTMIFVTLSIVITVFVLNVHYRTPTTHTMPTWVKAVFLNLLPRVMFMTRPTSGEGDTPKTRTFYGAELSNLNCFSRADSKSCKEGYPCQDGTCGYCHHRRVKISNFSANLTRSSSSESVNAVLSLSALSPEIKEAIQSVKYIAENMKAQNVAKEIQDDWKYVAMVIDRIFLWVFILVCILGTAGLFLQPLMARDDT
Sequence of rat α3β4 nAChR (P12392 21-495 limits assumed): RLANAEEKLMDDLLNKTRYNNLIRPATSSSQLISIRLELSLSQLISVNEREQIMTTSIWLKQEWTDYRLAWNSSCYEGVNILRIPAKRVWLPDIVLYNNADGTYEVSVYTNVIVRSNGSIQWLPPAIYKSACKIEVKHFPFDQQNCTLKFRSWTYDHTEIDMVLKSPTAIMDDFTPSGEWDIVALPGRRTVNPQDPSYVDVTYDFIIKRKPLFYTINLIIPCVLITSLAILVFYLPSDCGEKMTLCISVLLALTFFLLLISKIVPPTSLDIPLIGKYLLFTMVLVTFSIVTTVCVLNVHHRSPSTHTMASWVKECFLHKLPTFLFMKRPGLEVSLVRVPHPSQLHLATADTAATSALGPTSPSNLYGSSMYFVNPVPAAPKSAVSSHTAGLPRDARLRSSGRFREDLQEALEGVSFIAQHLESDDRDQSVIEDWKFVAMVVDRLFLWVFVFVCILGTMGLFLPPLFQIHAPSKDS
Sequence of rat α6/α3β4 nAChR (P04757 whole entry, looked up): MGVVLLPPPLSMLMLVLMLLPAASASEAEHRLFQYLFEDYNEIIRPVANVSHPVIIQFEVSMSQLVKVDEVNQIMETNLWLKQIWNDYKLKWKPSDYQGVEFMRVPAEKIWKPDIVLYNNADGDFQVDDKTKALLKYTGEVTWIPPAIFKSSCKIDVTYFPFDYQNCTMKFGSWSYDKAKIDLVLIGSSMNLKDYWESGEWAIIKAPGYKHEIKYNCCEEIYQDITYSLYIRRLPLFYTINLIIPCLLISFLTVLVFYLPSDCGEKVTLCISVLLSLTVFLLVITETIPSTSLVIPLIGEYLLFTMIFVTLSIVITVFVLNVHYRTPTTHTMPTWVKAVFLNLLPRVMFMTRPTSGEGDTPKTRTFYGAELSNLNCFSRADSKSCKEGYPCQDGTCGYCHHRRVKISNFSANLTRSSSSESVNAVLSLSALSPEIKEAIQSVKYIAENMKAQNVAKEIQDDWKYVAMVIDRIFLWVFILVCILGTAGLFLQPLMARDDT
Sequence of rat α6/α3β4 nAChR (P12392 whole entry, looked up): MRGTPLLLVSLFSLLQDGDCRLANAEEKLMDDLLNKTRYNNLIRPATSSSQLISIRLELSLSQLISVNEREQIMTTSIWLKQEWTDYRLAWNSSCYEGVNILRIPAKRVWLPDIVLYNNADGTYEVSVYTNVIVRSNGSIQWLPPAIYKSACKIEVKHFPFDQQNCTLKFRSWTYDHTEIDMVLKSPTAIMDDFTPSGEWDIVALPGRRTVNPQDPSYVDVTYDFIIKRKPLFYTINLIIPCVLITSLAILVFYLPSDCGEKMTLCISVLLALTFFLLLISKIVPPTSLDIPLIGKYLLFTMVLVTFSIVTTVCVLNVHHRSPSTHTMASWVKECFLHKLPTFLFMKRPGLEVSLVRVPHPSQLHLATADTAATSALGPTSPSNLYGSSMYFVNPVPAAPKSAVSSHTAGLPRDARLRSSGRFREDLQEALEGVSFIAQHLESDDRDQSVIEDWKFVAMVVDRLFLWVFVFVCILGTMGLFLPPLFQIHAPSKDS
Sequence of rat α6/α3β4 nAChR (P43143 whole entry, looked up): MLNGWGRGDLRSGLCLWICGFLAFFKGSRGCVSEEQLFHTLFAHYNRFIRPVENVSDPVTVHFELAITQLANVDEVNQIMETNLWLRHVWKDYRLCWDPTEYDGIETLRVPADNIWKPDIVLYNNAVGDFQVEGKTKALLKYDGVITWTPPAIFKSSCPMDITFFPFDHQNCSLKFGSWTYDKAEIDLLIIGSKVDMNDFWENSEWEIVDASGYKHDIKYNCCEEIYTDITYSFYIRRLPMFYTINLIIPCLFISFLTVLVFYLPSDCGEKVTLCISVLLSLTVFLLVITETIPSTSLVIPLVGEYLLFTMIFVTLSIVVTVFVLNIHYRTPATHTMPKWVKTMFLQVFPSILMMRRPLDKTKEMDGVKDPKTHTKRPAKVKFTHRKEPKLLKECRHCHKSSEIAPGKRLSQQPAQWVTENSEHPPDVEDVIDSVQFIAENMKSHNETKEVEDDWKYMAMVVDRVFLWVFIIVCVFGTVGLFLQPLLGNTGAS

CC[C@H](C)[C@@H]1NC(=O)[C@@H]2CCCN2C(=O)[C@H](Cc2ccc(O)cc2)NC(=O)[C@H](CCSC)NC(=O)[C@H](C)NC(=O)[C@H](CO)NC(=O)[C@@H]2CSSC[C@H](NC(=O)CN)C(=O)N[C@@H](CSSC[C@@H](C(N)=O)NC1=O)C(=O)N[C@@H](CO)C(=O)N[C@@H](Cc1c[nH]cn1)C(=O)N1CCC[C@H]1C(=O)N[C@@H](C(C)C)C(=O)N2 [TxID[S12Y]] (HELM PEPTIDE1{G.C.C.S.H.P.V.C.S.A.M.Y.P.I.C.[am]}$PEPTIDE1,PEPTIDE1,2:R3-8:R3|PEPTIDE1,PEPTIDE1,3:R3-15:R3$$$V2.0)
IC50 ratio of α6/α3β4 vs. α3β4 (Discrimination) [1]: 3.8
α6/α3β4 IC50 ratio [1]: 1.0
IC50 [1, 3]: 34.2 nM
α3β4 IC50 ratio [2]: 2.5
IC50 [2]: 9.09 nM

CC[C@H](C)[C@@H]1NC(=O)[C@@H]2CCCN2C(=O)[C@H](CO)NC(=O)[C@H](Cc2c[nH]cn2)NC(=O)[C@H](C)NC(=O)[C@H](CO)NC(=O)[C@@H]2CSSC[C@H](NC(=O)CN)C(=O)N[C@@H](CSSC[C@@H](C(N)=O)NC1=O)C(=O)N[C@@H](CO)C(=O)N[C@@H](Cc1c[nH]cn1)C(=O)N1CCC[C@H]1C(=O)N[C@@H](C(C)C)C(=O)N2 [TxID[M11H]] (HELM PEPTIDE1{G.C.C.S.H.P.V.C.S.A.H.S.P.I.C.[am]}$PEPTIDE1,PEPTIDE1,2:R3-8:R3|PEPTIDE1,PEPTIDE1,3:R3-15:R3$$$V2.0)
α6/α3β4 IC50 ratio [1]: 103
IC50 ([1]; α6/α3β4 IC50): 1000 to 10000 nM
IC50 [1, 3]: 3490 nM
blocking effect on the current of rat α3β4 nAChRs [2]: no blocking effects
IC50 [2]: > 10000 nM

CC[C@H](C)[C@@H]1NC(=O)[C@@H]2CCCN2C(=O)[C@H](CO)NC(=O)[C@H](CCSC)NC(=O)[C@H](C)NC(=O)[C@H](Cc2c[nH]cn2)NC(=O)[C@@H]2CSSC[C@H](NC(=O)CN)C(=O)N[C@@H](CSSC[C@@H](C(N)=O)NC1=O)C(=O)N[C@@H](CO)C(=O)N[C@@H](Cc1c[nH]cn1)C(=O)N1CCC[C@H]1C(=O)N[C@@H](C(C)C)C(=O)N2 [TxID[S9H]] (HELM PEPTIDE1{G.C.C.S.H.P.V.C.H.A.M.S.P.I.C.[am]}$PEPTIDE1,PEPTIDE1,2:R3-8:R3|PEPTIDE1,PEPTIDE1,3:R3-15:R3$$$V2.0)
IC50 ratio of α6/α3β4 vs. α3β4 (Discrimination) [1]: 5.6
binding (blocking) activity to α6/α3β4 nAChR compared with wild type TxID [1]: not significantly different from the activity of the wild type TxID
α6/α3β4 IC50 ratio [1]: 0.4
binding (blocking) activity to α3β4 nAChR compared with wild type TxID [2]: not significantly different from the activity of the wild type TxID
blocking of rat α3β4 nAChRs current [2]: strong blocking activities
current after 2 min of elution [2]: ~0 nA
elution after blocking the α3β4 nAChR current [2]: very slow
α3β4 IC50 ratio [2]: 0.7

CC[C@H](C)[C@@H]1NC(=O)[C@@H]2CCCN2C(=O)[C@H](CO)NC(=O)[C@H](CCSC)NC(=O)[C@H](C)NC(=O)[C@H](CO)NC(=O)[C@@H]2CSSC[C@H](NC(=O)CN)C(=O)N[C@@H](CSSC[C@@H](C(N)=O)NC1=O)C(=O)N[C@@H](C)C(=O)N[C@@H](Cc1c[nH]cn1)C(=O)N1CCC[C@H]1C(=O)N[C@@H](C(C)C)C(=O)N2 [TxID[S4A]] (HELM PEPTIDE1{G.C.C.A.H.P.V.C.S.A.M.S.P.I.C.[am]}$PEPTIDE1,PEPTIDE1,2:R3-8:R3|PEPTIDE1,PEPTIDE1,3:R3-15:R3$$$V2.0)
IC50 ratio of α6/α3β4 vs. α3β4 (Discrimination) [1]: 5.9
α6/α3β4 IC50 ratio [1]: 1.9
α3β4 IC50 ratio [2]: 3.0

CSCC[C@@H]1NC(=O)[C@H](C)NC(=O)[C@H](CO)NC(=O)[C@@H]2CSSC[C@H](NC(=O)CN)C(=O)N[C@@H](CSSC[C@@H](C(N)=O)NC(=O)[C@H](CC(C)C)NC(=O)[C@@H]3CCCN3C(=O)[C@H](CO)NC1=O)C(=O)N[C@@H](CO)C(=O)N[C@@H](Cc1c[nH]cn1)C(=O)N1CCC[C@H]1C(=O)N[C@@H](C(C)C)C(=O)N2 [TxID[I14L]] (HELM PEPTIDE1{G.C.C.S.H.P.V.C.S.A.M.S.P.L.C.[am]}$PEPTIDE1,PEPTIDE1,2:R3-8:R3|PEPTIDE1,PEPTIDE1,3:R3-15:R3$$$V2.0)
IC50 ratio of α6/α3β4 vs. α3β4 (Discrimination) [1]: 2.9
α6/α3β4 IC50 ratio [1]: 0.9
IC50 [1, 3]: 29 nM
α3β4 IC50 ratio [2]: 2.8
IC50 [2]: 9.98 nM

CC[C@H](C)[C@@H]1NC(=O)[C@@H]2CCCN2C(=O)[C@H](CO)NC(=O)[C@H](CCSC)NC(=O)[C@H](C)NC(=O)[C@H]([C@@H](C)O)NC(=O)[C@@H]2CSSC[C@H](NC(=O)CN)C(=O)N[C@@H](CSSC[C@@H](C(N)=O)NC1=O)C(=O)N[C@@H](CO)C(=O)N[C@@H](Cc1c[nH]cn1)C(=O)N1CCC[C@H]1C(=O)N[C@@H](C(C)C)C(=O)N2 [TxID[S9T]] (HELM PEPTIDE1{G.C.C.S.H.P.V.C.T.A.M.S.P.I.C.[am]}$PEPTIDE1,PEPTIDE1,2:R3-8:R3|PEPTIDE1,PEPTIDE1,3:R3-15:R3$$$V2.0)
binding (blocking) activity to α6/α3β4 nAChR compared with wild type TxID [1]: not significantly different from the activity of the wild type TxID
binding (blocking) activity to α3β4 nAChR compared with wild type TxID [2]: not significantly different from the activity of the wild type TxID

CC[C@H](C)[C@@H]1NC(=O)[C@H](Cc2c[nH]cn2)NC(=O)[C@@H]2CCCN2C(=O)[C@H](CO)NC(=O)[C@H](CCSC)NC(=O)[C@H](C)NC(=O)[C@H](CO)NC(=O)[C@@H]2CSSC[C@H](NC(=O)CN)C(=O)N[C@@H](CSSC[C@@H](C(N)=O)NC1=O)C(=O)N[C@@H](CO)C(=O)N[C@@H](Cc1c[nH]cn1)C(=O)N1CCC[C@H]1C(=O)N[C@@H](C(C)C)C(=O)N2 [TxID[14H]] (HELM PEPTIDE1{G.C.C.S.H.P.V.C.S.A.M.S.P.H.I.C.[am]}$PEPTIDE1,PEPTIDE1,2:R3-8:R3|PEPTIDE1,PEPTIDE1,3:R3-16:R3$$$V2.0)
IC50 ratio of α6/α3β4 vs. α3β4 (Discrimination) [1]: 9.5
α6/α3β4 IC50 ratio [1]: 9.2
IC50 [1, 3]: 312 nM
α3β4 IC50 ratio [2]: 9.2
IC50 [2]: 33 nM

CC[C@H](C)[C@@H]1NC(=O)[C@@H]2CCCN2C(=O)[C@H](CO)NC(=O)[C@H](CCSC)NC(=O)[C@H](C)NC(=O)[C@H](CO)NC(=O)[C@@H]2CSSC[C@H](NC(=O)CN)C(=O)N[C@@H](CSSC[C@@H](C(N)=O)NC1=O)C(=O)N[C@@H](CO)C(=O)N[C@@H](Cc1c[nH]c3ccccc13)C(=O)N1CCC[C@H]1C(=O)N[C@@H](C(C)C)C(=O)N2 [TxID[H5W]] (HELM PEPTIDE1{G.C.C.S.W.P.V.C.S.A.M.S.P.I.C.[am]}$PEPTIDE1,PEPTIDE1,2:R3-8:R3|PEPTIDE1,PEPTIDE1,3:R3-15:R3$$$V2.0)
IC50 [1, 3]: > 10000 nM
IC50 [2]: > 10000 nM

CC[C@H](C)[C@@H]1NC(=O)[C@@H]2CCCN2C(=O)[C@H](CO)NC(=O)[C@H](CCSC)NC(=O)[C@H](C)NC(=O)[C@H](C)NC(=O)[C@@H]2CSSC[C@H](NC(=O)CN)C(=O)N[C@@H](CSSC[C@@H](C(N)=O)NC1=O)C(=O)N[C@@H](CO)C(=O)N[C@@H](Cc1c[nH]c3ccccc13)C(=O)N1CCC[C@H]1C(=O)N[C@@H](C(C)C)C(=O)N2 [TxID[H5W, S9A]] (HELM PEPTIDE1{G.C.C.S.W.P.V.C.A.A.M.S.P.I.C.[am]}$PEPTIDE1,PEPTIDE1,2:R3-8:R3|PEPTIDE1,PEPTIDE1,3:R3-15:R3$$$V2.0)
IC50 [1, 3]: > 10000 nM
IC50 [2]: > 10000 nM
